Assays:
Type in all cases: cell-based, human
[1] = system: Sulfiredoxin (Srxn1) promoter; assay: Srxn1-luciferase reporter assay (PMA-dependent activation); details: U2oS cells, normalised to Renilla, n=3, p<0.05
Method: From this primary screen, we concentrated on the PYC36-like, AP1-inhibitory Phylomers, and selected 14 initial hits. Of these, 7 (TABLE 2 and FIG. 8) were confirmed to inhibit AP1-luciferase activity in a secondary reporter assay normalised to Renilla luciferase expression (FIG. 2). Briefly, Phylomer DNA of the primary hits was re-prepared from the original clones selected for the mini-library (Endo-Free Maxi-Prep, Qiagen), and 5×10^5 U2oS cells were co-transfected with 800 ng DNA comprising AP1-luciferase or Srxn1-luciferase (Papadia et al., 2008) (Firefly), pRL-TK (Renilla) and Phylomer plasmid. Reporter activity/inhibition was calculated by normalizing Firefly activity to Renilla.
As an additional confirmatory experiment, we asked whether these 6 Phylomers specifically regulated expression of a known AP1 target gene by testing their effect on the Sulfiredoxin (Srxn1) promoter, recently established as an AP1-dependent component of the anti-oxidant response mechanism (Papadia et al., 2008). Of the 6 Phylomers tested, 3 inhibited PMA-dependent activation of this promoter: 6G8, 25C3 and 48E6 (FIG. 3a). Importantly, these Phylomers had no effect upon PMA-induced transcription from a control Srxn1 promoter in which the AP1 response elements had been ablated by mutation (FIG. 3b), confirming that their effect on the Srxn1 promoter is AP1-specific.

[2] = system: Srxn1 promoter containing mutated AP1 response elements; assay: Control Srxn1 promoter reporter with mutated AP1 response elements; details: n=3, p>0.05
Method: From this primary screen, we concentrated on the PYC36-like, AP1-inhibitory Phylomers, and selected 14 initial hits. […] Reporter activity/inhibition was calculated by normalizing Firefly activity to Renilla.

AP1-luciferase reporter = assay: Primary phenotypic screen: PMA-mediated AP1-driven luciferase reporter in transfected U2oS cells; details: U2oS cells co-transfected with Phylomer plasmid, PMA 100 nM, read 24 hours later
Method: The mini-library of 3120 individual transfection-ready plasmids was used in a microtitre plate-based transfection assay system (ie, and array-based format) in the U2oS cell line, and the effects of the Phyomers expressed from this mini-library were assessed upon PMA-mediated AP1-driven luciferase reporter expression. The previously identified Phylomer PYC36 ([…] SEQ ID NO: 5)—found by reverse target-based yeast 2-hybrid screening against c-Jun bait, and known to affect AP1-dependent transcription (Mead et al., 2010 J. Neurochem, 112: 258-270)—was used as positive control.
Briefly, in triplicate plates, 1×10^5 U2oS cells were plated overnight and co-transfected with 100 ng of both AP1-luciferase reporter (Stratagene) and either an individual Phylomer construct from the mini-libary, or positive control (pcDNA3.1/PYC36) or vector control (pcDNA3.1/nV5-DEST-GusB). PMA (100 nM) was used to induce AP1-dependent luciferase expression 6 hours post-transfection, and luciferase activity was measured 24 hours later (SteadlyGlo, Promega).

| PMA-dependent activation of the Srxn1 promoter (Srxn1-luciferase activity) [1] | Substance | PMA-induced transcription from control Srxn1 promoter with AP1 response elements ablated by mutation [2] | AP1-dependent luciferase activity (transcription) (AP1-luciferase reporter) |
| --- | --- | --- | --- |
| inhibited | 6G8: AP1-inhibitory Phylomer RAEKCGKLF (SEQ ID NO: 10) (Protein fragment of unknown organism) [Phylomer 6G8] | no effect |  |
| inhibited | 48E6: AP1-inhibitory Phylomer HSDRTADI (SEQ ID NO: 18) (Protein fragment of unknown organism) [Phylomer 48E6] | no effect |  |
| significant inhibition | PYC36: previously identified Phylomer GLQGRRRQGYQSIKP (SEQ ID NO: 5), positive control known to affect AP1-dependent transcription (Protein fragment of unknown organism) [reference compound] |  | inhibited transcription |

From US20190204338A1, “Methods for the Characterisation of Interaction Sites on Target Proteins” (Phylogica Limited, priority 2012, published 2019)
